Where two headings read alike, the source gives them in different places.
What was measured:
Type in all cases: biochemical
[1] = molecular target: T1, Strep ligase (D-Ala-D-Ala ligase) (Streptococcus pneumoniae serotype 4, UniProt P0CB57); assay: D-Ala-D-Ala ligase Ki determination (PK/LDH coupled assay), Strep ligase
T1 sequence (P0CB57 1-347): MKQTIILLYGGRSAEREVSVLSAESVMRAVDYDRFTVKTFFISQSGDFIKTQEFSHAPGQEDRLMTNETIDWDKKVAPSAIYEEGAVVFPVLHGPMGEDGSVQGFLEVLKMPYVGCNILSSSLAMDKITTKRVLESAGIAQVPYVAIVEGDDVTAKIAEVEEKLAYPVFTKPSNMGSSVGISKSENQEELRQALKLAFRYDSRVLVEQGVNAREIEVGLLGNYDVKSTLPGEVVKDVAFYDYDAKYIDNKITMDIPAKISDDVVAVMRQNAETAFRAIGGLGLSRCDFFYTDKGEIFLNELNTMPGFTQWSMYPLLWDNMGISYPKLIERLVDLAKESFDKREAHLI
Source text: (§1) Inhibition of D-Ala-D-Ala ligase can be assayed for using the pyruvate kinase/lactate dehydrogenase (PK/LDH) assay described in Example 2, and as described in the literature (e.g., in Sarthy et al., Anal. Biochem., 254:288-290, 1997). In the bacterial cell wall synthesis process, the ligase catalyzes the conversion of adenosine triphosphate (ATP) to adenosine diphosphate (ADP) concurrent with the ligation of two D-alanine residues to form D-alanyl-D-alanine. PK then regenerates ATP from the ADP thus created simultaneously with the conversion of phosphopyruvate to pyruvate. LDH catalyzes the reduction of pyruvate to lactate by converting NADH to NAD^+. By monitoring the production rate of NAD^+ (e.g., using UV/Vis spectroscopy), D-Ala-D-Ala ligase activity can be ascertained.
(§2) The protein sequence for the enzyme D-ala-D-ala ligase has been determined in a variety of different bacterial species using standard techniques in biochemistry (see Table 5). The protein sequence from any species can be overexpressed in an appropriate host organism such as E. coli using standard molecular biology techniques. The ligase enzyme can be harvested, purified, and used in the above described assay for the determination of inhibitory activity.
(§3) The synthetic analogs of Example 1 were dissolved in dimethylsulfoxide (DMSO) at a concentration of 100 mM on the day of screening, using a vortex mixer and sonication if necessary for dissolution. The solutions were kept at room temperature until screening was completed.
(§4) A 10 mM NADH (Sigma) stock solution was prepared freshly on the day of screening by dissolving 32 μmol NADH in 3.2 ml double-distilled water. The NADH solution was kept on ice. Stock solutions containing 50 mM phosphoenolpyruvate (PEP; Sigma), 500 μM HERMES, 30 mM adenosine triphosphate (ATP; Sigma), 200 mM D-alanine (Sigma), and 4× core buffer (i.e., 400 mM Hepes, 40 mM magnesium chloride, and 40 mM potassium chloride), were also stored on ice. A stock solution of pyruvate kinase/lactate dehydrogenase (PK/LDH) was also obtained from Sigma.
(§5) Table of Final concentrations are dependent on the type of screening:
(§6) For each set of test compounds, two 96-well plates were used: an inhibitor plate and an enzyme plate. The test compounds correspond to rows A-G of the plates. Adenosine (Sigma) dissolved in DMSO, used as a control, corresponds to row H of each plate.
(§7) The enzyme solution was allowed to equilibrate to 25° C.
(§8) Dilutions were prepared in the inhibitor plate as follows: 50 μl DMSO was added to each well of columns 1-11, rows A-G, of the inhibitor plate. 50 μl DMSO were added to each well of columns 1-11, row H. 100 μl of the 100 mM test solutions were added to column 12, rows A-G (i.e., the first compound in row A, the second compound in row B, and so on). 100 μl of a 100 mM Adenosine solution was added to column 12, row H.
(§9) 50 μl of the test solution was transferred from column 12 in each row to column 11 of the a same row, mixing the solution with the DMSO. 50 μl of solution was then transferred from column 11 in each row to column 10 in the same row, 50 μl from column 10 was transferred to column 9, and so on, down to column 2. No solution was transferred to column 1. Multichannel pipettors were used in making the serial dilution.
(§10) 120 μl of the enzyme solution was added to each well of the enzyme plate.
(§11) The substrate solutions were brought to 25° C.
(§12) The analogs and enzymes were then incubated at 25° C. Since the reactions were initiated in columns, the analog addition is also in columns. At t=0 minutes, 5 μl analog was transferred from each well of columns 1-4 of the inhibitor plate to the corresponding well of the enzyme plate. At t=4 minutes, 5 μl analog was transferred from each well of columns 5-8 of the inhibitor plate to the corresponding well of the enzyme plate. At t=8 minutes, 5 μl analog was transferred from each well of columns 9-12 of the inhibitor plate to the corresponding well of the enzyme plate. The inhibitor plate was then frozen. […]

[2] = molecular target: E. coli ligase (D-Ala-D-Ala ligase) (Escherichia coli, UniProt P07862); assay: D-Ala-D-Ala ligase Ki determination (PK/LDH coupled assay), E. coli ligase
Source text: as §1, §2, §3, §4, §5, §6, §7, §8, §9, §10, §11, §12

[3] = molecular target: Staph ligase (D-Ala-D-Ala ligase) (Staphylococcus aureus, UniProt Q5HEB7); assay: D-Ala-D-Ala ligase Ki determination (PK/LDH coupled assay), Staph ligase
Chain of Staph ligase (D-Ala-D-Ala ligase) (Q5HEB7 whole entry): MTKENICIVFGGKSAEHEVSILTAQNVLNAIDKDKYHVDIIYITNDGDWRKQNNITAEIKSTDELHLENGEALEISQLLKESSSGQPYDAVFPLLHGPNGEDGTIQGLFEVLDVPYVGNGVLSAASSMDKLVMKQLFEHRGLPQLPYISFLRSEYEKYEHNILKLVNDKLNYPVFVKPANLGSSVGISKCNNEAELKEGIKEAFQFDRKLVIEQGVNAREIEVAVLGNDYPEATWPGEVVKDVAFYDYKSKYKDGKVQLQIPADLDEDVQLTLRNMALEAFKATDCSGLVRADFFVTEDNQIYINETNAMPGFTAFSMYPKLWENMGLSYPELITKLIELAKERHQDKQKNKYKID
Source text: as §1, §2, §3, §4, §5, §6, §7, §8, §9, §10, §11, §12

[4] = molecular target: H. Influenzae ligase (D-Ala-D-Ala ligase) (Haemophilus influenzae, UniProt P44405); assay: D-Ala-D-Ala ligase Ki determination (PK/LDH coupled assay), H. influenzae ligase
Chain of H. Influenzae ligase (D-Ala-D-Ala ligase) (P44405 whole entry): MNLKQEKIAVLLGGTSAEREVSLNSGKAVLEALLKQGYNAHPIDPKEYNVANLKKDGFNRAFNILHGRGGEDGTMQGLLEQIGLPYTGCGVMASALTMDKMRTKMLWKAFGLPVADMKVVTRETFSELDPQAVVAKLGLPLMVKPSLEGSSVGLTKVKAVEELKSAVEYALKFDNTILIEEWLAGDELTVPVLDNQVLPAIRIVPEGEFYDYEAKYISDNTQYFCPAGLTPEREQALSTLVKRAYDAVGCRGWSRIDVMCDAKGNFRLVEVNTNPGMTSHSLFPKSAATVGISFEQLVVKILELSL
Source text: as §1, §2, §3, §4, §5, §6, §7, §8, §9, §10, §11, §12

[5] = Table 5, Ki/ATP, avg, read-out: Strep ligase Ki/ATP (uM) avg
[6] = E. coli ligase Ki/ATP (uM) avg, Table 5, Ki/ATP, avg
[7] = Table 5, Ki/ATP, avg, read-out: Staph ligase Ki/ATP (uM) avg
[8] = Table 5, Ki/ATP, avg, read-out: H. Influenzae ligase Ki/ATP (uM) avg
[9] = Table 1, read-out: Ki (E. coli ligase)/μM
[10] = Table 4, Ki/ATP, avg, read-out: Strep ligase Ki/ATP (uM) avg
[11] = E. coli ligase Ki/ATP (uM) avg, Table 4, Ki/ATP, avg
[12] = Table 4, Ki/ATP, avg, read-out: Staph ligase Ki/ATP (uM) avg
[13] = Table 4, Ki/ATP, avg, read-out: H. Influenzae ligase Ki/ATP (uM) avg
[14] = Table 3, Ki/ATP, avg, read-out: Strep ligase Ki/ATP (uM) avg
[15] = E. coli ligase Ki/ATP (uM) avg, Table 3, Ki/ATP, avg
[16] = Table 3, Ki/ATP, avg, read-out: Staph ligase Ki/ATP (uM) avg
[17] = Table 3, Ki/ATP, avg, read-out: H. Influenzae ligase Ki/ATP (uM) avg
[18] = Table 2, read-out: Staph ligase

## CC(c1cccc2ccccc12)N(CCCN)c1ncc2c(N)nc(N)nc2n1 (centres unmarked)
[1]; [5]
  Ki: 81.2 µM
[2]; [6]
  Ki: 0.457 µM
[3]; [7]
  Ki: 46 µM
[4]; [8]
  Ki: 5.5 µM

## Nc1nc(N)c2cnc(N[C@H]3CCN(Cc4ccccc4)C3)nc2n1
[2]; [9]
  Ki: 13 µM

## C[C@@H](c1cccc2ccccc12)N(CC(O)C(=O)O)c1ncc2c(N)nc(N)nc2n1 (some centres unmarked)
[1]; [10]
  Ki: 4.3 µM
[2]; [11]
  Ki: 1.4 µM
[3]; [12]
  Ki: 4.3 µM
[4]; [13]
  Ki: 3.5 µM

## CC(c1cccc2ccccc12)N(CCCCN)c1ncc2c(N)nc(N)nc2n1 (centres unmarked) [drawing 41]
[2]; [9]
  Ki: 0.13 µM

## Nc1nc(N)c2cnc(CNC(=O)/C=C/c3ccccc3)nc2n1
[2]; [9]
  Ki: 92 µM

## CCCN(c1ncc2c(N)nc(N)nc2n1)C(C)c1cccc2ccccc12 (centres unmarked)
[1]; [5]
  Ki: 439 µM
[2]; [6]
  Ki: 2 µM
[3]; [7]
  Ki: 58 µM
[4]; [8]
  Ki: 2.7 µM

## Nc1nc(N)c2cnc(CSc3ccc(Cl)cc3)nc2n1
[2]; [9]
  Ki: 12 µM

## Nc1nc(N)c2cnc(N(CCCO)Cc3ccccc3)nc2n1
[2]; [9]
  Ki: 14 µM

## CCOc1ccc2ccccc2c1CN(CCC(=O)O)c1ncc2c(N)nc(N)nc2n1
[1]; [10]
  Ki: 2.1 µM
[2]; [11]
  Ki: 5.3 µM
[3]; [12]
  Ki: 6.7 µM
[4]; [13]
  Ki: 3.7 µM

## CC(C)c1nc2nc(N)nc(N)c2nc1C(C)C
[2]; [9]
  Ki: 37 µM

## CCOc1ccc2ccccc2c1CN(CCC(=O)NCc1ccccn1)c1ncc2c(N)nc(N)nc2n1
[1]; [14]
  Ki: 3.1 µM
[2]; [15]
  Ki: 9.6 µM
[3]; [16]
  Ki: 9.5 µM
[4]; [17]
  Ki: 0.267 µM

## C[C@H](c1ccc(F)c2ccccc12)N(C)c1ncc2c(N)nc(N)nc2n1 [CH3|CH3|R|F]
[2]; E. coli ligase (μM), Table 2
  Ki: 0.104 µM
[3]; [18]
  Ki: 27 µM

## Cc1ccc([C@@H](C)N(CC2CC2)c2ncc3c(N)nc(N)nc3n2)c2ccccc12 [—CH2CH(CH2)2|CH3|R|CH3]
[2]; E. coli ligase (μM), Table 2
  Ki: 0.174 µM
[3]; [18]
  Ki: 62 µM

## Nc1nc(N)c2cnc(N3C4CC3N4c3ccc(Cl)cc3)nc2n1
[2]; [9]
  Ki: 12 µM

## CC(c1cccc2ccccc12)N(CC(O)C(=O)O)c1ncc2c(N)nc(N)nc2n1 (centres unmarked)
[2]; [9]
  Ki: 0.5 µM

## Nc1nc(N)c2ncc(CNC(CO)CSCc3ccccc3)nc2n1 (centres unmarked)
[2]; [9]
  Ki: 55 µM

## CCOc1ccc2ccccc2c1CN(CC(O)C(=O)O)c1ncc2c(N)nc(N)nc2n1 (centres unmarked)
[1]; read-out: activity against Strep (ligase)
  Ki: 2.6 µM
[2]; E. coli ligase potency
  Ki: 0.143 µM
[3]; read-out: activity against Staph (ligase)
  Ki: 4.1 µM
[4]; read-out: activity against H. influenzae (ligase)
  Ki: 0.566 µM

## C[C@@H](c1cccc2ccccc12)N(C[C@@H](O)C(=O)O)c1ncc2c(N)nc(N)nc2n1 (racemic)
[2]; [11]
  Ki: 0.611 µM
[3]; [12]
  Ki: 7.8 µM

## CCC(c1cccc2ccccc12)N(C)c1ncc2c(N)nc(N)nc2n1 (centres unmarked) [—CH3|C2H5|R/S|H, N7-Methyl-N-7-(1-naphthalen-1-yl-propyl)-pyrimido[4,5-d]pyrimidine-2,4,7-triamine]
[2]; E. coli ligase (μM), Table 2
  Ki: 0.452 µM
[3]; [18]
  Ki: 4.6 µM

## CC(c1ccc(Cl)c2ccccc12)N(C)c1ncc2c(N)nc(N)nc2n1 (centres unmarked) [—CH3|CH3|R/S|Cl]
[2]; E. coli ligase (μM), Table 2
  Ki: 0.201 µM
[3]; [18]
  Ki: 4.9 µM

## CCN(c1ncc2c(N)nc(N)nc2n1)C(C)c1ccc(C)c2ccccc12 (centres unmarked) [—CH2CH3|CH3|R/S|CH3]
[2]; E. coli ligase (μM), Table 2
  Ki: 0.21 µM
[3]; [18]
  Ki: 38.5 µM

## CCOc1ccc2ccccc2c1CN(CCC(=O)NCCN)c1ncc2c(N)nc(N)nc2n1
[1]
  S. pneumoniae ligase activity (in words): single digit micromolar
[1]; [14]
  Ki: 1.9 µM
[2]
  Ki for E. coli ligase (in words): less than one micromolar
[2]; [15]
  Ki: 0.7 µM
[3]
  S. aureus ligase activity (in words): single digit micromolar
[3]; [16]
  Ki: 4.7 µM
[4]
  Ki for H. influenzae ligase (in words): less than one micromolar
[4]; [17]
  Ki: 1 µM

Source: US20080090847A1, “HETEROCYCLIC COMPOUNDS AND USES THEREOF AS D-ALANYL-D-ALANINE LIGASE INHIBITORS” (PLIVA D.D., priority 2001, published 2008)
